Results as given in ChEMBL document CHEMBL1921701, “Synthesis of GSK3β mimetic inhibitors of Akt featuring a novel extended dipeptide surrogate” (Bioorg Med Chem Lett, 2011).
pIC50: −log10 of the molar value.

Columns and labels:
[1] = target: T1, RAC-alpha serine/threonine-protein kinase (Homo sapiens, UniProt P31749); assay: Inhibition of His-tagged ATP-binding domain of AKT1 assessed as GRPRTSSFAEG crosstide phosphorylation using [33P]ATP
[2] = target: T1, RAC-alpha serine/threonine-protein kinase; assay: Inhibition of His-tagged ATP-binding domain of AKT1 assessed as residual activity by measuring GRPRTSSFAEG crosstide phosphorylation at 50 uM using [33P]ATP

T1 sequence (P31749 whole entry, the tested form may be a part): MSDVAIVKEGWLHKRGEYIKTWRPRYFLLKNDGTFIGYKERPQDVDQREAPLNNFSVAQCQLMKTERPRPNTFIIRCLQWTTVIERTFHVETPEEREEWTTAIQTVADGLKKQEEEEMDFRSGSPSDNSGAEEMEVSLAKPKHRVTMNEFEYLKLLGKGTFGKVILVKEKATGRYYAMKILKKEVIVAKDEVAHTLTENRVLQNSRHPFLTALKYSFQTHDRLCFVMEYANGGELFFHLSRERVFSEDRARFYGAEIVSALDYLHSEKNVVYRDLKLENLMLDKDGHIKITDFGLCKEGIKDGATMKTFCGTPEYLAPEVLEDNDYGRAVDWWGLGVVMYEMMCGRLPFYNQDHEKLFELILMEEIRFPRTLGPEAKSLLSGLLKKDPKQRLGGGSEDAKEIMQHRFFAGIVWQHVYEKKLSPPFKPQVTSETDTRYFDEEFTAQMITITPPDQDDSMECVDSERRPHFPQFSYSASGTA

| Structure (SMILES) | pIC50 [1] | inhibition [1] | Activity [2] [%] |
| --- | --- | --- | --- |
| CC(C)[C@H](NC(=O)[C@@H]1CC[C@H]2[C@H](NC(=O)CCCCN=C(N)N)COC(=O)N12)C(=O)NC(Cc1ccccc1)C(=O)NCc1ccccc1 (mixture of isomers) | 4.40 |  |  |
| CC(C)[C@H](NC(=O)[C@@H]1CC[C@H]2[C@H](NC(=O)[C@H](CCCNC(=N)N)NC(=O)c3ccccc3)COC(=O)N12)C(=O)NC(Cc1ccccc1)C(=O)NCc1ccccc1 (mixture of isomers) | 4.79 | Dose-dependent effect | 14.6 |
| CC(C)[C@H](NC(=O)[C@@H]1CC[C@H]2[C@H](NC(=O)[C@H](CCCN=C(N)N)NC(=O)Cc3ccccc3)COC(=O)N12)C(=O)NC(Cc1ccccc1)C(=O)NCc1ccccc1 (mixture of isomers) | 4.82 |  |  |
| CC(C)[C@H](NC(=O)[C@@H]1CC[C@H]2[C@H](NC(=O)[C@H](CCCN=C(N)N)NC(=O)OCc3ccccc3)COC(=O)N12)C(=O)NC(Cc1ccccc1)C(=O)NCc1ccccc1 (mixture of isomers) | 5.51 |  |  |
| CC(C)[C@H](NC(=O)[C@@H]1CC[C@H]2[C@H](NC(=O)CCCCNC(=N)N)COC(=O)N12)C(=O)NC(Cc1ccccc1)C(=O)NCc1ccccc1 (mixture of isomers) |  | Dose-dependent effect | 21.1 |
| CC(C)[C@H](NC(=O)[C@@H]1CC[C@H]2[C@H](NC(=O)CNC(=N)N)COC(=O)N12)C(=O)NC(Cc1ccccc1)C(=O)NCc1ccccc1 (mixture of isomers) |  |  | 89.4 |
| CC(C)[C@H](NC(=O)[C@@H]1CC[C@H]2[C@H](NC(=O)[C@H](CCCNC(=N)N)NC(=O)Cc3ccccc3)COC(=O)N12)C(=O)NC(Cc1ccccc1)C(=O)NCc1ccccc1 (mixture of isomers) |  | Dose-dependent effect | 16.8 |
| CC(C)[C@H](NC(=O)[C@@H]1CC[C@H]2[C@H](NC(=O)[C@H](CCCNC(=N)N)NC(=O)OCc3ccccc3)COC(=O)N12)C(=O)NC(Cc1ccccc1)C(=O)NCc1ccccc1 (mixture of isomers) |  | Dose-dependent effect | 2.2 |
